Results reported in PubChem BioAssay (NCI).
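The compound was tested at five concentrations on cells cultured in 96-well plates, with a 48-hour exposure period. Abbreviation: GI50, concentration required for 50% inhibition of growth. At the TGI there is no net growth.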

Tested on: NCI/ADR-RES ovarian
Test: NCI anticancer screen, dose series, 48 h

`CCOC(=O)Cn1c(=O)ccn(COCCO)c1=O` and `CCOC(=O)c1cc2c3ccn(Cc4ccccc4)c3c3c(C)[nH]oc3c2n1` cannot be ordered by TGI: greater than 100 µM for the first, greater than 100 µM for the second.

`CN(C)CCCN=c1c2ccccc2n(O)c2ccccc12` and `O=C1c2ccccc2C(=O)N1CCCCNOCCCN1C(=O)c2ccccc2C1=O` cannot be ordered by TGI: greater than 100 µM for the first, greater than 100 µM for the second.

`C=CCCC1(CC(Sc2ccccc2)P(=O)(c2ccccc2)c2ccccc2)OCCO1` (stereo not given) and `Cc1ccc2c3c1O[C@H]1c4[nH]c5ccccc5c4C[C@@]4(O)[C@@H](C2)N(CC2CC2)CC[C@]314` cannot be ordered by TGI: greater than 10 µM for the first, 42.2 µM for the second.

For `Nc1ccc(Cc2c(N)[nH]c(=O)[nH]c2=O)cc1`, the TGI was greater than 100 µM.

`N#Cc1ccccc1CSc1ncnc2nc[nH]c12` was tested, and the GI50 was 60.4 µM.

Tested on: OVCAR-3 ovarian
Test: NCI anticancer screen, dose series, 48 h

`CCOC(=O)Cn1c(=O)ccn(COCCO)c1=O` and `CCOC(=O)c1cc2c3ccn(Cc4ccccc4)c3c3c(C)[nH]oc3c2n1` cannot be ordered by TGI: greater than 100 µM for the first, greater than 100 µM for the second.

`CN(C)CCCN=c1c2ccccc2n(O)c2ccccc12` and `O=C1c2ccccc2C(=O)N1CCCCNOCCCN1C(=O)c2ccccc2C1=O` cannot be ordered by TGI: greater than 100 µM for the first, greater than 100 µM for the second.

`C=CCCC1(CC(Sc2ccccc2)P(=O)(c2ccccc2)c2ccccc2)OCCO1` (stereo not given) and `Cc1ccc2c3c1O[C@H]1c4[nH]c5ccccc5c4C[C@@]4(O)[C@@H](C2)N(CC2CC2)CC[C@]314` cannot be ordered by TGI: greater than 10 µM for the first, 27.5 µM for the second.

Compound `Nc1ccc(Cc2c(N)[nH]c(=O)[nH]c2=O)cc1` has a TGI greater than 100 µM.

Tested on: UO-31 renal
Test: NCI anticancer screen, dose series, 48 h

`CCOC(=O)Cn1c(=O)ccn(COCCO)c1=O` and `CCOC(=O)c1cc2c3ccn(Cc4ccccc4)c3c3c(C)[nH]oc3c2n1` cannot be ordered by TGI: greater than 100 µM for the first, greater than 100 µM for the second.

`CN(C)CCCN=c1c2ccccc2n(O)c2ccccc12` and `O=C1c2ccccc2C(=O)N1CCCCNOCCCN1C(=O)c2ccccc2C1=O` cannot be ordered by TGI: greater than 100 µM for the first, greater than 100 µM for the second.

`C=CCCC1(CC(Sc2ccccc2)P(=O)(c2ccccc2)c2ccccc2)OCCO1` (stereo not given) and `Cc1ccc2c3c1O[C@H]1c4[nH]c5ccccc5c4C[C@@]4(O)[C@@H](C2)N(CC2CC2)CC[C@]314` cannot be ordered by TGI: greater than 10 µM for the first, 26.8 µM for the second.

Work on `Nc1ccc(Cc2c(N)[nH]c(=O)[nH]c2=O)cc1` yielded a TGI greater than 100 µM.

`N#Cc1ccccc1CSc1ncnc2nc[nH]c12` was tested, and the GI50 was 47.4 µM.

Tested on: HOP-62 NSCLC
Test: NCI anticancer screen, dose series, 48 h

`CCOC(=O)Cn1c(=O)ccn(COCCO)c1=O` and `CCOC(=O)c1cc2c3ccn(Cc4ccccc4)c3c3c(C)[nH]oc3c2n1` cannot be ordered by TGI: greater than 100 µM for the first, greater than 100 µM for the second.

`CN(C)CCCN=c1c2ccccc2n(O)c2ccccc12` and `O=C1c2ccccc2C(=O)N1CCCCNOCCCN1C(=O)c2ccccc2C1=O` cannot be ordered by TGI: greater than 100 µM for the first, greater than 100 µM for the second.

`C=CCCC1(CC(Sc2ccccc2)P(=O)(c2ccccc2)c2ccccc2)OCCO1` (stereo not given) and `Cc1ccc2c3c1O[C@H]1c4[nH]c5ccccc5c4C[C@@]4(O)[C@@H](C2)N(CC2CC2)CC[C@]314` cannot be ordered by TGI: greater than 10 µM for the first, 33.3 µM for the second.

Tested on: K-562 leukemia
Test: NCI anticancer screen, dose series, 48 h

`CCOC(=O)Cn1c(=O)ccn(COCCO)c1=O` and `CCOC(=O)c1cc2c3ccn(Cc4ccccc4)c3c3c(C)[nH]oc3c2n1` cannot be ordered by TGI: greater than 100 µM for the first, greater than 100 µM for the second.

`CN(C)CCCN=c1c2ccccc2n(O)c2ccccc12` and `O=C1c2ccccc2C(=O)N1CCCCNOCCCN1C(=O)c2ccccc2C1=O` cannot be ordered by TGI: greater than 100 µM for the first, greater than 100 µM for the second.

`C=CCCC1(CC(Sc2ccccc2)P(=O)(c2ccccc2)c2ccccc2)OCCO1` (stereo not given) and `Cc1ccc2c3c1O[C@H]1c4[nH]c5ccccc5c4C[C@@]4(O)[C@@H](C2)N(CC2CC2)CC[C@]314` cannot be ordered by TGI: greater than 10 µM for the first, 61.1 µM for the second.

For `Nc1ccc(Cc2c(N)[nH]c(=O)[nH]c2=O)cc1`, the TGI was greater than 100 µM.

With `N#Cc1ccccc1CSc1ncnc2nc[nH]c12` the GI50 was 67.2 µM.

Tested on: ACHN renal
Test: NCI anticancer screen, dose series, 48 h

`CCOC(=O)Cn1c(=O)ccn(COCCO)c1=O` and `CCOC(=O)c1cc2c3ccn(Cc4ccccc4)c3c3c(C)[nH]oc3c2n1` cannot be ordered by TGI: greater than 100 µM for the first, greater than 100 µM for the second.

`CN(C)CCCN=c1c2ccccc2n(O)c2ccccc12` and `O=C1c2ccccc2C(=O)N1CCCCNOCCCN1C(=O)c2ccccc2C1=O` cannot be ordered by TGI: greater than 100 µM for the first, greater than 100 µM for the second.

`C=CCCC1(CC(Sc2ccccc2)P(=O)(c2ccccc2)c2ccccc2)OCCO1` (stereo not given) and `Cc1ccc2c3c1O[C@H]1c4[nH]c5ccccc5c4C[C@@]4(O)[C@@H](C2)N(CC2CC2)CC[C@]314` cannot be ordered by TGI: greater than 10 µM for the first, 30.9 µM for the second.

Work on `Nc1ccc(Cc2c(N)[nH]c(=O)[nH]c2=O)cc1` yielded a TGI greater than 100 µM.

Tested on: MALME-3M melanoma
Test: NCI anticancer screen, dose series, 48 h

`CCOC(=O)Cn1c(=O)ccn(COCCO)c1=O` and `CCOC(=O)c1cc2c3ccn(Cc4ccccc4)c3c3c(C)[nH]oc3c2n1` cannot be ordered by TGI: greater than 100 µM for the first, greater than 100 µM for the second.

`CN(C)CCCN=c1c2ccccc2n(O)c2ccccc12` and `O=C1c2ccccc2C(=O)N1CCCCNOCCCN1C(=O)c2ccccc2C1=O` cannot be ordered by TGI: greater than 100 µM for the first, greater than 100 µM for the second.

`C=CCCC1(CC(Sc2ccccc2)P(=O)(c2ccccc2)c2ccccc2)OCCO1` (stereo not given) and `Cc1ccc2c3c1O[C@H]1c4[nH]c5ccccc5c4C[C@@]4(O)[C@@H](C2)N(CC2CC2)CC[C@]314` cannot be ordered by TGI: greater than 10 µM for the first, 28.4 µM for the second.

In the case of `Nc1ccc(Cc2c(N)[nH]c(=O)[nH]c2=O)cc1`, the TGI is reported as greater than 100 µM.

Tested on: COLO 205 colon
Test: NCI anticancer screen, dose series, 48 h

`CCOC(=O)Cn1c(=O)ccn(COCCO)c1=O` and `CCOC(=O)c1cc2c3ccn(Cc4ccccc4)c3c3c(C)[nH]oc3c2n1` cannot be ordered by TGI: greater than 100 µM for the first, greater than 100 µM for the second.

Compared with `CN(C)CCCN=c1c2ccccc2n(O)c2ccccc12`, `O=C1c2ccccc2C(=O)N1CCCCNOCCCN1C(=O)c2ccccc2C1=O` is higher in TGI: 26.9 µM for the first, greater than 100 µM for the second.

`C=CCCC1(CC(Sc2ccccc2)P(=O)(c2ccccc2)c2ccccc2)OCCO1` (stereo not given) and `Cc1ccc2c3c1O[C@H]1c4[nH]c5ccccc5c4C[C@@]4(O)[C@@H](C2)N(CC2CC2)CC[C@]314` cannot be ordered by TGI: greater than 10 µM for the first, 30.8 µM for the second.

Compound `Nc1ccc(Cc2c(N)[nH]c(=O)[nH]c2=O)cc1` has a TGI greater than 100 µM.

Tested on: T-47D breast
Test: NCI anticancer screen, dose series, 48 h

`CCOC(=O)Cn1c(=O)ccn(COCCO)c1=O` and `CCOC(=O)c1cc2c3ccn(Cc4ccccc4)c3c3c(C)[nH]oc3c2n1` cannot be ordered by TGI: greater than 100 µM for the first, greater than 100 µM for the second.

`CN(C)CCCN=c1c2ccccc2n(O)c2ccccc12` and `O=C1c2ccccc2C(=O)N1CCCCNOCCCN1C(=O)c2ccccc2C1=O` cannot be ordered by TGI: greater than 100 µM for the first, greater than 100 µM for the second.

`C=CCCC1(CC(Sc2ccccc2)P(=O)(c2ccccc2)c2ccccc2)OCCO1` (stereo not given) and `Cc1ccc2c3c1O[C@H]1c4[nH]c5ccccc5c4C[C@@]4(O)[C@@H](C2)N(CC2CC2)CC[C@]314` cannot be ordered by TGI: greater than 10 µM for the first, 36.6 µM for the second.

Compound `Nc1ccc(Cc2c(N)[nH]c(=O)[nH]c2=O)cc1` has a TGI greater than 100 µM.

Tested on: NCI-H522 lung
Test: NCI anticancer screen, dose series, 48 h

`CCOC(=O)Cn1c(=O)ccn(COCCO)c1=O` and `CCOC(=O)c1cc2c3ccn(Cc4ccccc4)c3c3c(C)[nH]oc3c2n1` cannot be ordered by TGI: greater than 100 µM for the first, greater than 100 µM for the second.

`CN(C)CCCN=c1c2ccccc2n(O)c2ccccc12` and `O=C1c2ccccc2C(=O)N1CCCCNOCCCN1C(=O)c2ccccc2C1=O` cannot be ordered by TGI: greater than 100 µM for the first, greater than 100 µM for the second.

Compared with `Cc1ccc2c3c1O[C@H]1c4[nH]c5ccccc5c4C[C@@]4(O)[C@@H](C2)N(CC2CC2)CC[C@]314`, `Nc1ccc(Cc2c(N)[nH]c(=O)[nH]c2=O)cc1` is higher in TGI: 29.5 µM for the first, greater than 100 µM for the second.

Tested on: RXF 393 renal
Test: NCI anticancer screen, dose series, 48 h

`CCOC(=O)Cn1c(=O)ccn(COCCO)c1=O` and `CCOC(=O)c1cc2c3ccn(Cc4ccccc4)c3c3c(C)[nH]oc3c2n1` cannot be ordered by TGI: greater than 100 µM for the first, greater than 100 µM for the second.

`CN(C)CCCN=c1c2ccccc2n(O)c2ccccc12` and `O=C1c2ccccc2C(=O)N1CCCCNOCCCN1C(=O)c2ccccc2C1=O` cannot be ordered by TGI: greater than 100 µM for the first, greater than 100 µM for the second.

`C=CCCC1(CC(Sc2ccccc2)P(=O)(c2ccccc2)c2ccccc2)OCCO1` (stereo not given) and `Cc1ccc2c3c1O[C@H]1c4[nH]c5ccccc5c4C[C@@]4(O)[C@@H](C2)N(CC2CC2)CC[C@]314` cannot be ordered by TGI: greater than 10 µM for the first, 20.8 µM for the second.

`N#Cc1ccccc1CSc1ncnc2nc[nH]c12` showed a GI50 of 94.9 µM.

Tested on: U251 CNS
Test: NCI anticancer screen, dose series, 48 h

`CCOC(=O)Cn1c(=O)ccn(COCCO)c1=O` and `CCOC(=O)c1cc2c3ccn(Cc4ccccc4)c3c3c(C)[nH]oc3c2n1` cannot be ordered by TGI: greater than 100 µM for the first, greater than 100 µM for the second.

`CN(C)CCCN=c1c2ccccc2n(O)c2ccccc12` and `O=C1c2ccccc2C(=O)N1CCCCNOCCCN1C(=O)c2ccccc2C1=O` cannot be ordered by TGI: greater than 100 µM for the first, greater than 100 µM for the second.

`C=CCCC1(CC(Sc2ccccc2)P(=O)(c2ccccc2)c2ccccc2)OCCO1` (stereo not given) and `Cc1ccc2c3c1O[C@H]1c4[nH]c5ccccc5c4C[C@@]4(O)[C@@H](C2)N(CC2CC2)CC[C@]314` cannot be ordered by TGI: greater than 10 µM for the first, 28.2 µM for the second.

In the case of `Nc1ccc(Cc2c(N)[nH]c(=O)[nH]c2=O)cc1`, the TGI is reported as greater than 100 µM.

Tested on: HL-60(TB) leukemia
Test: NCI anticancer screen, dose series, 48 h

`CCOC(=O)Cn1c(=O)ccn(COCCO)c1=O` and `CCOC(=O)c1cc2c3ccn(Cc4ccccc4)c3c3c(C)[nH]oc3c2n1` cannot be ordered by TGI: greater than 100 µM for the first, greater than 100 µM for the second.

`CN(C)CCCN=c1c2ccccc2n(O)c2ccccc12` and `C=CCCC1(CC(Sc2ccccc2)P(=O)(c2ccccc2)c2ccccc2)OCCO1` (stereo not given) cannot be ordered by TGI: greater than 100 µM for the first, greater than 10 µM for the second.

Compared with `Cc1ccc2c3c1O[C@H]1c4[nH]c5ccccc5c4C[C@@]4(O)[C@@H](C2)N(CC2CC2)CC[C@]314`, `Nc1ccc(Cc2c(N)[nH]c(=O)[nH]c2=O)cc1` is higher in TGI: 22.4 µM for the first, greater than 100 µM for the second.

Tested on: SK-MEL-28 melanoma
Test: NCI anticancer screen, dose series, 48 h

`CCOC(=O)Cn1c(=O)ccn(COCCO)c1=O` and `CCOC(=O)c1cc2c3ccn(Cc4ccccc4)c3c3c(C)[nH]oc3c2n1` cannot be ordered by TGI: greater than 100 µM for the first, greater than 100 µM for the second.

`CN(C)CCCN=c1c2ccccc2n(O)c2ccccc12` and `O=C1c2ccccc2C(=O)N1CCCCNOCCCN1C(=O)c2ccccc2C1=O` cannot be ordered by TGI: greater than 100 µM for the first, greater than 100 µM for the second.

`C=CCCC1(CC(Sc2ccccc2)P(=O)(c2ccccc2)c2ccccc2)OCCO1` (stereo not given) and `Cc1ccc2c3c1O[C@H]1c4[nH]c5ccccc5c4C[C@@]4(O)[C@@H](C2)N(CC2CC2)CC[C@]314` cannot be ordered by TGI: greater than 10 µM for the first, 36.4 µM for the second.

In the case of `Nc1ccc(Cc2c(N)[nH]c(=O)[nH]c2=O)cc1`, the TGI is reported as greater than 100 µM.

Tested on: HOP-92 NSCLC
Test: NCI anticancer screen, dose series, 48 h

`CCOC(=O)Cn1c(=O)ccn(COCCO)c1=O` and `CN(C)CCCN=c1c2ccccc2n(O)c2ccccc12` cannot be ordered by TGI: greater than 100 µM for the first, greater than 100 µM for the second.
